Each structure is given as a SMILES string. “And” between values parts separate entries of the source, which are not always exact repeats. Equal entries are not always repeated.

The values below come from US20040241766A1, “Carbamazepine assay” (priority 2003, published 2004).

Data set [1] addresses T1, avidin (Gallus gallus, UniProt P02701).
T1 construct: purchased Pierce Chemical Company
Nature of the data set: HABA assay: displacement of HABA from avidin. It is filed as binding. The method, then: In order to determine whether CBZ can bind to avidin, a solution of 10 mg/L CBZ dissolved in methanol was used in a HABA assay (Pierce Chemical Company, Pittsburgh, Pa.). When [2-(4′-hydroxyazobenzene) benzoic acid (HABA) is added in excess of avidin (Pierce Chemical Company, Pittsburgh, Pa.), an absorption at 500 nm is observed and a change in color occurs from yellow to red. This absorption is decreased proportionately when biotin is added since biotin displaces the HABA dye due to its higher affinity for avidin. The assay can be performed in a single cuvette by noting the A500 of the avidin-HABA solution before and after addition of the biotin-containing sample; the change in absorbance can then be related to the amount of biotin in the sample by using the extinction coefficient of the complex.
This change in absorbance is equivalent to 0.17 μmoles biotin-competing capacity of CBZ/ml reaction mixture. This amount was present according to a calculation equation described by the manufacturer.

A short description of data set [2]: Serum CBZ concentration in CBZ-treated rats (competitive avidin assay vs HPLC with UV detection). It is filed as in vivo. To be noted: rat serum, 3.75 g CBZ/kg diet for 68 days, Serum #1-#3. The method, then: Biotinylated bovine serum albumin (BSA) was synthesized by mixing 50 mL of 10 g/L BSA in ice-cold 0.1 mol/L NaHCO3 (pH 7.5) with 5 mL of a 12 g/L N-hydroxysuccinimide ester (NHS-biotin) in dimethyl sulfoxide overnight at 4° C. The mixture was dialyzed for 48 h with gentle stirring at 4° C.
A flat bottom 96-well microtiter plate (Nunc Maxisorp, Fisher Scientific, Pittsburgh, Pa.) was coated with 200 μL of a 1:2 dilution of biotinylated BSA in coating buffer (50 mmol/L bicarbonate, pH 9.0) and incubated at 4° C. for at least 1 h (up to 48 h).
A 10 g/L stock of CBZ was made by dissolving CBZ in methanol and then this was diluted 1:2 in Hepes buffer (0.1 mol/L Hepes, 1 mol/L NaCl, pH 7.0) to make a concentration of 5 g/L. 5 μL of this stock was diluted in 295 μL serum (collected immediately after a rat had been killed by exsanguination and whole blood was allowed to clot 10 min before centrifugation at 10,000× g for 10 min, and serum recovered). […]
The coated flat bottom plate was washed three times with 0.05% (v/v) tween-20 and before the wells dried out, 100 μL of the contents of the U-bottom plate were added to the flat bottom plate and incubated for 45 min—up to 4 h. […] After 45 min, 50 μL of 2 mol/L H2SO4 was added to the wells and the absorbance was measured at 490-650 nm in a plate reader spectrophotometer (Molecular Devices, Sunnyvale, Calif.). […]

The conditions of data set [3]: humans, serum concentration; cited from earlier work.

T1 sequence (P02701 25-152): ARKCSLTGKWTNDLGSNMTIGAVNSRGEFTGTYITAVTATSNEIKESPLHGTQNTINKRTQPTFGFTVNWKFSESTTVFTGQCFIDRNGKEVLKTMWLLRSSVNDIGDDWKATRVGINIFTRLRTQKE

Consider `NC(=O)N1c2ccccc2C=Cc2ccccc21` [CBZ, 5-carbamoyl-5H-dibenz[b,f]azepine], for which the “change in absorbance at 500 nm” value in data set [1] (10 mg/L CBZ in methanol added to avidin-HABA solution) came out at 0.5633. In addition, the “binding to avidin relative to HABA” value in data set [1] (HABA displacement) is “binds more tightly to avidin than does HABA”. Also, in data set [1] (calculated from change in absorbance by manufacturer's equation, 10 mg/L CBZ), the “biotin-competing capacity of CBZ/ml reaction mixture” value is 0.17 µmol. Moreover, in data set [2] (HPLC with UV detection), the “serum CBZ concentration, HPLC” value was 4.7 mg/L and 3.3 mg/L. Also, the “serum CBZ concentration, Competitive Assay” value in data set [2] (avidin-HRP/biotinylated BSA competitive assay) is 4.8 mg/L and 3.8 mg/L and 3.0 mg/L. In addition, the therapeutic range in data set [3] was 4 to 12 mg/L.
